Experimental data as given in patent publication US6403034B1, “Method of reducing the concentration of recalcitrant organic contamination in a soil matrix” (priority 1995, dated 2002).
Where two headings read alike, the source gives them in different places.

Legend:
[1] = Relative recalcitrancy classification of organic contaminants (FIG. 1); format: physicochemical
[2] = Ozonation of contaminated soil slurry in 5-L reaction flask (Examples 1, 2 and 7); format: physicochemical
[3] = format: physicochemical; details: for soil concentration reduced by: continuous ozonation for 56 days
[4] = Laboratory ozonation of contaminants, incubation versus oxidation phase (FIGS. 2, 5, 6, 8-12); format: physicochemical; details: for incubation time: lab conditions
[5] = aqueous solubility; cited from earlier work
[6] = by solubility, volatility and non-reactivity standards

Question: Which relative recalcitrancy [1] does the source give for `ClC1=C(Cl)C2(Cl)C3C4C=CC(C4)C3C1(Cl)C2(Cl)Cl` (stereo not shown) [Aldrin] here?
Answer: strongly recalcitrant

Question: For `c1ccccc1` [Benzene], which relative recalcitrancy [1, 6] is on record?
Answer: non-recalcitrant

Question: With `ClC1=C(Cl)C2(Cl)C3C(Cl)C(Cl)CC3C1(Cl)C2(Cl)Cl` (stereo not shown) [Chlordane] as the molecule, how does the relative recalcitrancy [1] read?
Answer: strongly recalcitrant

Question: With `Clc1ccc(C(c2ccc(Cl)cc2)C(Cl)(Cl)Cl)cc1` [DDT] as the molecule, how does the relative recalcitrancy [1] read?
Answer: strongly recalcitrant

Question: For `CCCCCCCCOC(=O)c1ccccc1C(=O)OCCCCCCCC` [Di-n-octyl phthalate], which “concentration reduced by” value ([2]; Example 2, in 48 hours of ozonation, start 37 mg/Kg) is on record?
Answer: 97%

Question: With `O=S1OCC2C(CO1)C1(Cl)C(Cl)=C(Cl)C2(Cl)C1(Cl)Cl` (stereo not shown) [Endosulfan II] as the molecule, how does the incubation phase ([3]; 31 mg/kg, FIG. 17) read?
Answer: about 16 days

Question: What about the “soil concentration reduced by” value [3] of the same molecule?
Answer: 100%

Question: Which “soil concentration reduced by” value [3] does the source give for `CCOP(=S)(OCC)Oc1ccc([N+](=O)[O-])cc1` [Ethyl Parathion] here?
Answer: 100%

Question: With `Clc1c(Cl)c(Cl)c(Cl)c(Cl)c1Cl` [HCB] as the molecule, how does the “incubation phase (ozonation time)” value [4] read?
Answer: ~8 h

Question: What does the source list for `Oc1c(Cl)c(Cl)c(Cl)c(Cl)c1Cl` [PCP, Pentachlorophenol]?
Answer: incubation time ([4]; FIG. 10): about 45 minutes; concentration reduced by ([2]; Example 1, in 31 hours, start 28 mg/Kg): 97.5%

Question: Which “soil concentration reduced by” value [3] does the source give for `CCOP(=S)(OCC)Oc1ccc([S+](C)[O-])cc1` (stereo not shown) [Phensulfothion] here?
Answer: 100%

Question: Which relative recalcitrancy [1] does the source give for `c1cc2c3c(cccc3c1)CC2` [acenapthene] here?
Answer: recalcitrant

Question: For `c1ccc2cc3ccccc3cc2c1` [anthracene], which relative recalcitrancy [1, 6] is on record?
Answer: recalcitrant

Question: For `c1ccc2c(c1)cc1ccc3cccc4ccc2c1c34` [benzo(a)pyrene], which incubation time ([4]; FIGS. 6, 8, 9) is on record?
Answer: more than 5 hours

Question: Which solubility [5] does the source give for `c1ccc(-c2ccccc2)cc1` [biphenyl] here?
Answer: 5,200 μg/L

Question: What about the relative recalcitrancy [1] of the same molecule?
Answer: marginally recalcitrant

Question: Which incubation time ([4]; FIGS. 6, 8, 9) does the source give for `CCCCC(CC)COC(=O)c1ccccc1C(=O)OCC(CC)CCCC` (stereo not shown) [bis(2-ethylhexyl)phthalate] here?
Answer: less than 30 hours

Question: And the relative recalcitrancy [1, 6]?
Answer: recalcitrant

Question: And the “concentration reduced by” value ([2]; Example 2, in 72 hours of ozonation, start 597 mg/Kg)?
Answer: 98.2%

Question: With `c1ccc2c(c1)ccc1c3ccccc3ccc21` [chrysene] as the molecule, how does the relative recalcitrancy [1] read?
Answer: recalcitrant

Question: For `CCc1ccccc1` [ethylbenzene], which relative recalcitrancy [1] is on record?
Answer: non-recalcitrant

Question: Which relative recalcitrancy [1, 6] does the source give for `CCCCCCC` [heptane] here?
Answer: non-recalcitrant

Question: For `CCOC(=O)CC(SP(=S)(OC)OC)C(=O)OCC` (stereo not shown) [malathion], which relative recalcitrancy [1] is on record?
Answer: recalcitrant

Question: With `c1ccc2ccccc2c1` [napthalene] as the molecule, how does the relative recalcitrancy [1] read?
Answer: recalcitrant
